Article PMC5944028, “Nonclinical and clinical pharmacological characterization of the potent and selective cathepsin K inhibitor MIV-711” (Journal of Translational Medicine, 2018)

Columns and labels:
[1] = biological target: T1, human cathepsin V (Homo sapiens, UniProt O60911); test: Enzyme assay, human cathepsin V; type: biochemical
T1 construct: purchased R & D Systems
Source text: (§1) Recombinant cathepsin K enzymes from all species were expressed in E. coli, purified and activated. Human cathepsin F and cathepsin S were expressed in Baculovirus, purified and activated. Purified human cathepsins B and H (Athens Research Technology), cathepsin L (Calbiochem), and cathepsin V (R & D Systems) were purchased.
(§2) H-D-Ala_Leu-Lys-AMC was used as the substrate in assays of cathepsin K from non-rodent species (human, dog, rabbit and guinea pig), and Z-Leu-Arg-AMC was used as the substrate in assays of cathepsin K from rodent species (mouse and rat). […]
(§3) Assays were carried out in white polystyrene 96-well plates in a final volume of 100 µL. […] Plates were read in a Fluoroskan Ascent (Thermo Labsystems, Helsinki, Finland) in kinetic mode, with excitation and emission filters of 390 and 460 nm, respectively. Rates were determined by linear regression of the fluorescence/time data in Excel. Rates were fitted by non-linear regression to either the competitive inhibition equation, with the substrate concentration fixed at the value in the assay and the KM fixed to the value previously determined, or the IC50 equation using GraphPad Prism (GraphPad, version 6, San Diego, USA) to obtain Ki or IC50 values, respectively.

[2] = biological target: T2, dog cathepsin K (Canis lupus familiaris, UniProt Q3ZKN1); test: Recombinant enzyme assay, dog cathepsin K; type: biochemical; conditions: geometric mean
T2 construct: made in house; host or cells: E. coli
Source text: as §1, §2, §3

[3] = biological target: guinea pig cathepsin K; test: Recombinant enzyme assay, guinea pig cathepsin K; type: biochemical; conditions: geometric mean
Source text: as §1, §2, §3

[4] = biological target: T3, rat cathepsin K (Rattus norvegicus, UniProt O35186); test: Recombinant enzyme assay, rat cathepsin K; type: biochemical; conditions: footnote a: IC50
T3 construct: made in house; host or cells: E. coli
Source text: as §1, §2, §3

[5] = pKa; type: physicochemical
[6] = Human plasma pharmacokinetics, single ascending dose study; type: in vivo, human healthy subjects; conditions: for AUC0–t / AUCinf / Cmax / Cmax/dose / t½: geometric mean (CV%); for tmax: median (min–max)
Source text: Twenty-seven healthy male and female subjects (18 male and 9 female) of any ethnic origin (24 White, 1 Asian, 1 Black, 1 Black/Caribbean White), aged between 19 and 64 years, and with a body mass index (BMI) between 18.0 and 32.0 kg/m^2, were selected for this study. Inclusion criteria for enrollment followed the standard practice for first-in-man studies.
This was a randomized, double-blind, placebo-controlled, sequential, single-ascending dose study conducted at a single site with the objective of evaluating the safety, tolerability, pharmacokinetics (PK) and pharmacodynamics of MIV-711. Subjects were randomized into 3 groups using a computer-generated pseudo-random permutation procedure. Each group consisted of 9 subjects with at least 3 subjects of each gender per group and subjects participated in 1–2 treatment periods. There was a minimum of 10 days between dose escalations and a minimum of 20 days between dosing occasions for individual subjects. For each subsequent dosing occasion, the decision to escalate the dose to the next level was taken after a thorough review of the safety, tolerability and PK data. In each treatment period, 7 subjects received MIV-711 and 2 received placebo (comprising of 1 subject of each gender). Dosing occurred on the morning of Day 1 following an overnight fast and subjects were kept in the fasted state until approximately 4.5 h after dosing. MIV-711 was given as a combination of 10 or 40 mg hard gelatin capsules, while placebo was given in similar capsules of identical appearance.
Blood samples were collected at pre-dose, 0.5, 1, 1.5, 2, 3, 4, 6, 8, 12, 16, 24, 36 and 48 h post-dose and processed into plasma for the measurement of concentrations of MIV-711. The PK analysis was conducted using WinNonlin Enterprise Version 5.2 (Pharsight Corporation, Mountain View, CA, USA).
The quantification of MIV-711 in monkey plasma was performed by taking 10–50 µL of plasma and mixing with 3 volumes of acetonitrile (10 s, Vibrofix). The sample was centrifuged (10 min, 20,000×g, 7 °C) and 5 µL of the supernatant was injected onto the liquid chromatography with tandem mass spectrometric detection (LC–MS/MS) system. The lowest concentration of the standard curves and the lower limit of quantification (LLOQ) was 1 nmol/L of MIV-711. The human plasma samples were prepared by protein precipitation for sample extraction followed by LC–MS/MS. The lowest concentration of the standard curves and the LLOQ was 4 nmol/L of MIV-711 using 25 µL of plasma.

[7] = test system: differentiated human osteoclasts; parameters: method as in PMID 20097319; conditions: bovine bone slices; read-out: IC50 in bone resorption assay; cited from earlier work

T1 sequence (O60911 114-334): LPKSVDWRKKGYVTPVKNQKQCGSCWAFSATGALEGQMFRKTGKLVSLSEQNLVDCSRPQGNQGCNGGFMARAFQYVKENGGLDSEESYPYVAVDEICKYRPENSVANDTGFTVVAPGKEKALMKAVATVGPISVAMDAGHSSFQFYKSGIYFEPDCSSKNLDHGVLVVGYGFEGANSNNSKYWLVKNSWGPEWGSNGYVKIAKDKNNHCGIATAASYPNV
T2 sequence (Q3ZKN1 116-330): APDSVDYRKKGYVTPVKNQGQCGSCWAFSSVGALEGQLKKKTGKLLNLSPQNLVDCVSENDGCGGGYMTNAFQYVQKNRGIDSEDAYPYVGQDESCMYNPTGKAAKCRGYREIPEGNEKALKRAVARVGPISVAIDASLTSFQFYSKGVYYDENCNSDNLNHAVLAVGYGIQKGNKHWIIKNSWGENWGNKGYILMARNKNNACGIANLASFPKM
T3 sequence (O35186 115-329): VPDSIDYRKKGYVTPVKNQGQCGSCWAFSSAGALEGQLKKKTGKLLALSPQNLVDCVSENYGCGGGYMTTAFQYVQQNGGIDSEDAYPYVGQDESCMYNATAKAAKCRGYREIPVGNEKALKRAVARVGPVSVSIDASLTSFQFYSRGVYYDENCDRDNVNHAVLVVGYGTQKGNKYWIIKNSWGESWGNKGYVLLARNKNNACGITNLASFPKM

SMILES: C#C[C@@H]1CN(C(=O)[C@H](CC(C)C)NC(=O)c2ccc(-c3nc(N4CCN(C)CC4)sc3F)cc2)[C@@H]2C(=O)CO[C@H]12 [MIV-711]
- Ki [1]: 4000 nM
- Ki [2]: 1.5 nM
- Ki [3]: 9.8 nM
- IC50 [4]: 240 nM
- pKa [5]: 7.15
- AUC0–t ([6]; 20 mg single oral dose): 0.128 (36) µmol/L × h
- AUCinf ([6]; 20 mg single oral dose): 0.158 (32) µmol/L × h
- Cmax ([6]; 20 mg single oral dose): 33 nM
- Cmax/dose ([6]; 20 mg single oral dose): 0.12 (26)
- t½ ([6]; 20 mg single oral dose): 3.4 (13) h
- tmax ([6]; 20 mg single oral dose): 1.0 (0.50–2.0) h
- AUC0–24h ([6]; 100 mg): 1.1 µM·h
- AUC0–t ([6]; 100 mg single oral dose): 1.13 (38) µmol/L × h
- AUCinf ([6]; 100 mg single oral dose): 1.17 (37) µmol/L × h
- Cmax ([6]; 100 mg single oral dose): 293 nM
- Cmax/dose ([6]; 100 mg single oral dose): 0.21 (23)
- t½ ([6]; 100 mg single oral dose): 3.7 (15) h
- tmax ([6]; 100 mg single oral dose): 1.0 (1.0–2.2) h
- Plasma levels at 24 h post-dose ([6]; 100 mg, mostly below LLOQ): < 4 nM
- AUC0–t ([6]; 200 mg single oral dose): 2.45 (36) µmol/L × h
- AUCinf ([6]; 200 mg single oral dose): 2.51 (35) µmol/L × h
- Cmax ([6]; 200 mg single oral dose): 756 nM
- Cmax/dose ([6]; 200 mg single oral dose): 0.27 (36)
- t½ ([6]; 200 mg single oral dose): 5.0 (16) h
- tmax ([6]; 200 mg single oral dose): 1.0 (0.50–1.0) h
- AUC0–t ([6]; 400 mg single oral dose): 4.62 (33) µmol/L × h
- AUCinf ([6]; 400 mg single oral dose): 4.75 (32) µmol/L × h
- Cmax ([6]; 400 mg single oral dose): 1180 nM
- Cmax/dose ([6]; 400 mg single oral dose): 0.23 (37)
- t½ ([6]; 400 mg single oral dose): 6.5 (44) h
- tmax ([6]; 400 mg single oral dose): 1.0 (1.0–1.5) h
- AUC0–t ([6]; 600 mg single oral dose): 6.75 (30) µmol/L × h
- AUCinf ([6]; 600 mg single oral dose): 6.89 (30) µmol/L × h
- Cmax ([6]; 600 mg single oral dose): 1390 nM
- Cmax/dose ([6]; 600 mg single oral dose): 0.17 (38)
- t½ ([6]; 600 mg single oral dose): 8.3 (34) h
- tmax ([6]; 600 mg single oral dose): 1.0 (1.0–3.0) h
- Excreted renally unchanged ([6]; data not shown): less than 1%
- mean terminal t1/2 ([6]; over the 20–600 mg dose range): 3.4 to 8.3 h
- median tmax ([6]; single oral doses): 1 h
- IC50 [7]: 37 nM
